Measurements reported in patent US20080234262A1 (Wyeth, priority 2007, published 2008).

Test system: breast line MDA468
Assay: In vitro cell culture growth assay (MTS), MDA468
Assay type: cell-based, human
Conditions: MDA468 cells, three days after drug treatment
Experimental: Human tumor cell lines used include prostate lines LNCap and PC3MM2, breast lines MDA468, MCF7, renal line HTB44 (A498), colon line HCT116, and ovarian line OVCAR3. Cells were plated in 96-well culture plates. One day following plating, the inhibitors were added to cells. Three days after drug treatment, viable cell densities were determined by metabolic conversion (by viable cells) of the dye MTS, a well established cell proliferation assay. The assays were performed using an assay kit purchased from Promega Corp. (Madison, Wis.) following the protocol supplied with the kit. The MTS assay results were read in a 96-well plate reader by measuring absorbance at 490 nm. The effect of each treatment was calculated as percent of control growth relative to the vehicle-treated cells grown in the same culture plate.

Compound	IC50 (Homo sapiens, 72 h)	IC50
CC(C)(C)OC(=O)N1CCC(n2ncc3c(N4CCOCC4)nc(-c4ccc(NC(=O)NCCF)cc4)nc32)CC1 [Compound 765, tert-butyl 4-[6-(4-{[(2-fluoroethyl)carbamoyl]amino}phenyl)-4-morpholin-4-yl-1H-pyrazolo[3,4-d]pyrimidin-1-yl]piperidine-1-carboxylate]	360 nM	
COC(=O)N1CCC(n2ncc3c(N4CCOCC4)nc(-c4ccc(NC(=O)Nc5ccc(CCN6CCCC6)cc5)cc4)nc32)CC1 [Compound 914, methyl 4-{4-morpholin-4-yl-6-[4-({[4-(2-pyrrolidin-1-ylethyl)phenyl]carbamoyl}amino)phenyl]-1H-pyrazolo[3,4-d]pyrimidin-1-yl}piperidine-1-carboxylate]	20 nM	
CN(C)C(=O)Nc1ccc(-c2nc(N3CCOCC3)c3cnn(C4CCN(Cc5ccccc5)CC4)c3n2)cc1 [Compound 205]	8000 nM	
O=C(Nc1ccc(-c2nc(N3CCOCC3)c3cnn(C4CCN(Cc5ccccc5)CC4)c3n2)cc1)Nc1ncc[nH]1 [Compound 570, 1-{4-[1-(1-benzylpiperidin-4-yl)-4-morpholin-4-yl-1H-pyrazolo[3,4-d]pyrimidin-6-yl]phenyl}-3-(1H-imidazol-2-yl)urea]	3500 nM	
O=C(Nc1ccc(-c2nc(N3CCOCC3)c3cnn(C4CCN(Cc5ccccc5)CC4)c3n2)cc1)Nc1ncc[nH]1 [Example 326, 1-{4-[1-(1-benzylpiperidin-4-yl)-4-morpholin-4-yl-1H-pyrazolo[3,4-d]pyrimidin-6-yl]phenyl}-3-(1H-imidazol-2-yl)urea]	3500 nM	
CNC(=O)Nc1ccc(-c2nc(N3CCOCC3)c3cnn(C4CCN(C(=O)OC)CC4)c3n2)cc1 [Compound 721, methyl 4-(6-{4-[(methylcarbamoyl)amino]phenyl}-4-morpholin-4-yl-1H-pyrazolo[3,4-d]pyrimidin-1-yl)piperidine-1-carboxylate]	80 nM	
CN1CCC(NC(=O)Nc2ccc(-c3nc(N4CCOCC4)c4cnn(C5CCN(Cc6ccccc6)CC5)c4n3)cc2)CC1 [Compound 272]	1200 nM	
CNC(=O)Cc1ccc(-c2nc(N3CCOCC3)c3cnn(C4CCN(Cc5ccccc5)CC4)c3n2)cc1 [Compound 371, 2-{4-[1-(1-benzylpiperidin-4-yl)-4-morpholin-4-yl-1H-pyrazolo[3,4-d]pyrimidin-6-yl]phenyl}-N-methylacetamide]	10000 nM	
CC(C)OC(=O)N1CCC(n2ncc3c(N4CCOCC4)nc(-c4ccc(NC(=O)NC5CC5)cc4)nc32)CC1 [Compound 835, isopropyl 4-(6-{4-[(cyclopropylcarbamoyl)amino]phenyl}-4-morpholin-4-yl-1H-pyrazolo[3,4-d]pyrimidin-1-yl)piperidine-1-carboxylate]	320 nM	
O=C(Nc1ccc(-c2nc(N3CCOCC3)c3cnn(C4CCN(Cc5ccccc5)CC4)c3n2)cc1)NC1CC1 [Example 311, 1-{4-[1-(1-benzylpiperidin-4-yl)-4-morpholin-4-yl-1H-pyrazolo[3,4-d]pyrimidin-6-yl]phenyl}-3-cyclopropylurea]	1100 nM	
CONC(=O)Nc1ccc(-c2nc(N3CCOCC3)c3cnn(C4CCN(Cc5ccccc5)CC4)c3n2)cc1 [Compound 532, 1-{4-[1-(1-benzylpiperidin-4-yl)-4-morpholin-4-yl-1H-pyrazolo[3,4-d]pyrimidin-6-yl]phenyl}-3-methoxyurea]	160 nM	
O=C(Nc1ccc(-c2nc(N3CCOCC3)c3cnn(C4CCN(Cc5ccccc5)CC4)c3n2)cc1)NC1CC1 [Compound 556, 1-{4-[1-(1-benzylpiperidin-4-yl)-4-morpholin-4-yl-1H-pyrazolo[3,4-d]pyrimidin-6-yl]phenyl}-3-cyclopropylurea]	1050 nM	
O=C(NCCO)Nc1ccc(-c2nc(N3CCOCC3)c3cnn(C4CCN(Cc5ccccc5)CC4)c3n2)cc1 [Example 265, 1-{4-[1-(1-benzylpiperidin-4-yl)-4-morpholin-4-yl-1H-pyrazolo[3,4-d]pyrimidin-6-yl]phenyl}-3-(2-hydroxyethyl)urea]	100 nM	
COC(=O)N1CCC(n2ncc3c(N4CCOCC4)nc(-c4ccc(NC(=O)NCCF)cc4)nc32)CC1 [Compound 732, methyl 4-[6-(4-{[(2-fluoroethyl)carbamoyl]amino}phenyl)-4-morpholin-4-yl-1H-pyrazolo[3,4-d]pyrimidin-1-yl]piperidine-1-carboxylate]	90 nM	
COC(=O)N1CCC(n2ncc3c(N4CCOCC4)nc(-c4ccc(NC(=O)Nc5ccc(CCN6CCN(C)CC6)cc5)cc4)nc32)CC1 [Compound 917, methyl 4-(6-{4-[({4-[2-(4-methylpiperazin-1-yl)ethyl]phenyl}carbamoyl)amino]phenyl}-4-morpholin-4-yl-1H-pyrazolo[3,4-d]pyrimidin-1-yl)piperidine-1-carboxylate]	60 nM	
CNC(=O)Nc1ccc(-c2nc(N3CCOCC3)c3cnn(C4CCN(C(=O)OC(C)(C)C)CC4)c3n2)cc1 [Compound 582, tert-butyl 4-(6-{4-[(methylcarbamoyl)amino]phenyl}-4-morpholin-4-yl-1H-pyrazolo[3,4-d]pyrimidin-1-yl)piperidine-1-carboxylate]		210 nM
O=C(NCCF)Nc1ccc(-c2nc(N3CCOCC3)c3cnn(C4CCN(Cc5ccccc5)CC4)c3n2)cc1 [Compound 534, 1-{4-[1-(1-benzylpiperidin-4-yl)-4-morpholin-4-yl-1H-pyrazolo[3,4-d]pyrimidin-6-yl]phenyl}-3-(2-fluoroethyl)urea]	27.4 nM	
COC(=O)N1CCC(n2ncc3c(N4CCOCC4)nc(-c4ccc(N)cc4)nc32)CC1 [Compound 741, methyl 4-[6-(4-aminophenyl)-4-morpholin-4-yl-1H-pyrazolo[3,4-d]pyrimidin-1-yl]piperidine-1-carboxylate]	12000 nM	
CNC(=O)Nc1ccc(-c2nc(N3CCOCC3)c3cnn(C4CCN(C(=O)OC(C)(C)C)CC4)c3n2)cc1 [Compound 583, tert-butyl 4-(6-{4-[(methylcarbamoyl)amino]phenyl}-4-morpholin-4-yl-1H-pyrazolo[3,4-d]pyrimidin-1-yl)piperidine-1-carboxylate]		450 nM
CN(C)NC(=O)Nc1ccc(-c2nc(N3CCOCC3)c3cnn(C4CCN(Cc5ccccc5)CC4)c3n2)cc1 [Compound 290, N-{4-[1-(1-benzylpiperidin-4-yl)-4-morpholin-4-yl-1H-pyrazolo[3,4-d]pyrimidin-6-yl]phenyl}-2,2-dimethylhydrazinecarboxamide]	8000 nM	
COC(=O)N1CCC(n2ncc3c(N4CCOCC4)nc(-c4ccc(NC(=O)NC5CC5)cc4)nc32)CC1 [Compound 734, methyl 4-(6-{4-[(cyclopropylcarbamoyl)amino]phenyl}-4-morpholin-4-yl-1H-pyrazolo[3,4-d]pyrimidin-1-yl)piperidine-1-carboxylate]	150 nM	
CNC(=O)Nc1ccc(-c2nc(N3CCOCC3)c3cnn(C4CCN(C(=O)OC)CC4)c3n2)cc1 [Compound 720, methyl 4-(6-{4-[(methylcarbamoyl)amino]phenyl}-4-morpholin-4-yl-1H-pyrazolo[3,4-d]pyrimidin-1-yl)piperidine-1-carboxylate]		95 nM
CNC(=O)Nc1ccc(-c2nc(N3CCOCC3)c3cnn(C4CCN(C(=O)OC)CC4)c3n2)cc1 [Example 476, methyl 4-(6-{4-[(methylcarbamoyl)amino]phenyl}-4-morpholin-4-yl-1H-pyrazolo[3,4-d]pyrimidin-1-yl)piperidine-1-carboxylate]	100 nM	
